For the assay, the target named is T1, human GLP-1R (Homo sapiens, UniProt P43220).
T1 construct: expressed in transfected cells; host or cells: PEAK RAPID-derived Gα15-trans48 LD stably expressing cells (PRG48), transiently transfected with Lipofectamine 2000
Nature of the assay: GLP-1 receptor in vitro calcium assay (intracellular free calcium concentration change induced via GLP-1 receptor). The format is cell-based. The following applies: for EC50: PRG48 cells transfected with human GLP-1R, compound added with 250 pM GLP-1, Ca2+ response ΔF/F, read-out: Ca EC50 value; for GLP-1 receptor action enhancing activity (vs BETP): intensity compared to BETP, activity of BETP as 1. How it is done: The supernatant was removed by centrifugation (1,200 rpm, 3 min), and the cells were suspended at 4×10^6 cells/mL in 5% FBS DMEM/Ham's F-12. 1.0 mL thereof was seeded in a 15 cm dish and cultured (37° C., 5% CO2) overnight. The next day, the medium of the cultured PRG48 cells was replaced with 5% FBS DMEM/Ham's F-12 medium (30 mL), human GLP-1R gene mixture solution (GLP-1R/pc.DNA3.1(+) 60 μg) prepared using 6.0 mL of Opti-MEM (invitrogen) and 120 μL of Lipofectamin 2000 (invitrogen) was slowly added to the cells, and cultured (37° C., 5% CO2) for 6 hr to introduce the gene. […] The cells were counted, suspended at 0.5×10^6 cells/mL in 5% FBS DMEM/Ham's F-12 medium, and seeded in each well of D-Lysine coat 96 well plate (BD Bioscience) at 7.0×10^4 cells. After static adhesion at room temperature for 1 hr, the cells were cultured overnight (37° C., 5% CO2). The medium in the Cultured 96 well was entirely discarded, 150 μL of intracellular calcium measurement staining solution Calcium assay kit Express (Molecular Device) diluted 80-fold with Assay buffer (20 mM HEPES, 146 mM NaCl, 1 mM MgSO4, 1.39 mM glucose, 1 mM CaCl2, 2.5 mM Probenecid, 0.05% Casein Enzymatic Hydrolysate) was added, and the mixture was stood at 37° C. for 30 min, and then at room temperature for 45 min to perform staining. After staining, 250 pM GLP-1 and the compound were added and Ca^2+ response was observed by using FDSSμCELL (Hamamatsu Photonics K.K.). Each evaluation compound was dissolved in DMSO, further diluted with Assay buffer and used.
For evaluation, the fluorescence values (Ex480:Em540) before and after addition were measured, and changes in the intracellular free calcium concentration produced via GLP-1R receptor by the addition were quantitatively examined. For the measurement and analysis of the fluorescence values, a soft (FDSS7000EX) attached to the FDSSμCELL was used, and ΔF/F value ((maximum fluorescence value after stimulation−minimum fluorescence value after stimulation)/fluorescence value before stimulation) was calculated. Using the obtained ΔF/F values, EC50 value was calculated by Prism5.

SMILES strings stand for the structures.

T1 sequence (P43220 24-463): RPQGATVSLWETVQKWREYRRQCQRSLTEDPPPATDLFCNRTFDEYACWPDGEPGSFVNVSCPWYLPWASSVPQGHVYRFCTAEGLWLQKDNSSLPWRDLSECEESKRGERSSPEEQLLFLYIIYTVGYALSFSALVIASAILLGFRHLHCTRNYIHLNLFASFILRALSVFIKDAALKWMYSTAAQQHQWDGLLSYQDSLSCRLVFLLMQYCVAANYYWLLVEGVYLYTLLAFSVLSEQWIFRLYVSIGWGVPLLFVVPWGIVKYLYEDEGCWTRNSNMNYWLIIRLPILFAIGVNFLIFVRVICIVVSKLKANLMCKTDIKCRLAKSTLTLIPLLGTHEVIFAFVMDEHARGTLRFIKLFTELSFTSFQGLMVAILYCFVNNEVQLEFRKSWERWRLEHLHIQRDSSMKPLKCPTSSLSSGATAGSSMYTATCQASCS

As usually defined, the EC50 is the midpoint of the concentration-response curve. In the case of `CCCCCCNc1ccc(S(=O)(=O)Nc2cccc(NC(=O)N[C@H](CC3CCCCC3)C(=O)NCCCSC)c2)cn1` [Compound 113], the concentration for a half-maximal effect (EC50) worked out at 28 nM and the “GLP-1 receptor action enhancing activity (vs BETP)” value is listed as 898.

Turning to `CCCCCCNC(=O)[C@@H](Cc1ccc(Cl)cc1)NC(=O)Nc1ccc(NS(=O)(=O)c2ccc(C)cc2)cc1` [Compound 19], the EC50 is 160 nM. For the molecule `CCCCCCNc1ccc(S(=O)(=O)Nc2cccc(NC(=O)N[C@H](CC3CCCCC3)C(=O)NCC(CC)CCCC)c2)cn1` (stereo partly shown) [Compound 114], the EC50 is 30 nM and the “GLP-1 receptor action enhancing activity (vs BETP)” value was 850. For `Cc1cc(C)c(S(=O)(=O)Nc2ccc(NC(=O)N[C@@H](Cc3ccccc3)C(=O)OC(C)(C)C)cc2)c(C)c1` [Compound 80], in that order: 380 nM and 67. Take `Cc1ccc(S(=O)(=O)Nc2ccc(NC(=O)N[C@H](Cc3ccccc3)C(=O)NCc3ccccc3)cc2)cc1` [Compound 14]: the EC50 was determined as 1800 nM and the “GLP-1 receptor action enhancing activity (vs BETP)” value worked out at 14. For `Cc1ccc(S(=O)(=O)Nc2cccc(NC(=O)N[C@@H](Cc3ccccc3)C(=O)OC(C)(C)C)c2)cc1` [Compound 79] the same measures were 1500 nM and 17. For `CCCCCCCCNC(=O)[C@@H](Cc1ccccc1)NC(=O)Nc1ccc(NS(=O)(=O)c2ccc(C)cc2)cc1` [Compound 5] the same measures were 51 nM and 490. For `Cc1ccc(S(=O)(=O)Nc2ccc(NC(=O)N[C@H](Cc3ccccc3)C(=O)NCC(F)(F)F)cc2)cc1` [Compound 15] the same measures were 42 nM and 599. With `Cc1ccc(S(=O)(=O)Nc2ccc(NC(=O)N[C@H](Cc3ccccc3)C(=O)NC(C)CCCC(C)C)cc2)cc1` (stereo partly shown) [Compound 55], the half-maximal effective concentration (EC50) came to 45 nM and the “GLP-1 receptor action enhancing activity (vs BETP)” value is 558. For `Cc1ccc(S(=O)(=O)Nc2ccc(NC(=O)N[C@H](CC(C)C)C(=O)NC3CCCCCC3)cc2)cc1` [Compound 44] the same measures were 1300 nM and 19. As for `CCCCC(CC)CNC(=O)[C@@H](CC1CCCCC1)NC(=O)N(CC(=O)O)c1ccc(NS(=O)(=O)c2ccc(C(C)(C)C)cc2)cc1` (stereo partly shown) [Compound 101], the EC50 was found to be 20 nM and the “GLP-1 receptor action enhancing activity (vs BETP)” value is reported as 1272. For `CCCCCCNC(=O)[C@@H](Cc1ccccc1)NC(=O)Nc1ccc(NS(=O)(=O)c2ccc(C)cc2)cc1` [Compound 2] the same measures were 680 nM and 37. For `CCCCCCNC(=O)[C@@H](CCSC)NC(=O)Nc1ccc(NS(=O)(=O)c2ccc(C)cc2)cc1` [Compound 20], in that order: 1500 nM and 17.

Turning to `CCCCC(CC)CNC(=O)[C@@H](Cc1ccccc1)NC(=O)Nc1ccc(NS(=O)(=O)c2ccc(C)cc2)cc1` (stereo partly shown) [Compound 34], the EC50 is 64 nM and the “GLP-1 receptor action enhancing activity (vs BETP)” value stood at 391.

Consider `CCCc1ccc(S(=O)(=O)Nc2ccc(NC(=O)N[C@@H](Cc3ccccc3)C(=O)OC(C)(C)C)cc2)cc1` [Compound 71], for which the 50% effective concentration (EC50) is 400 nM and the “GLP-1 receptor action enhancing activity (vs BETP)” value is 64. For `Cc1ccc(S(=O)(=O)Nc2ccc(NC(=O)N[C@H](Cc3ccccc3)C(=O)NCc3cccs3)cc2)cc1` [Compound 12] the same measures were 540 nM and 47. Turning to `COc1ccc(CNC(=O)[C@@H](Cc2ccccc2)NC(=O)Nc2ccc(NS(=O)(=O)c3ccc(C)cc3)cc2)cc1` [Compound 25], the EC50 stood at 1400 nM and the “GLP-1 receptor action enhancing activity (vs BETP)” value was determined as 18. For `Cc1ccc(S(=O)(=O)Nc2ccc(NC(=O)N[C@H](Cc3ccccc3)C(=O)NCc3ccc(F)cc3)cc2)cc1` [Compound 26] the same measures were 1100 nM and 24. For `CCCCCC(C)NC(=O)[C@@H](Cc1ccccc1)NC(=O)Nc1ccc(NS(=O)(=O)c2ccc(C)cc2)cc1` (stereo partly shown) [Compound 54], in that order: 180 nM and 137. For `Cc1ccc(S(=O)(=O)Nc2ccc(N(C)C(=O)N[C@H](Cc3ccccc3)C(=O)OC(C)(C)C)cc2)cc1` [Compound 86], in that order: 430 nM and 58. With `Cc1ccc(S(=O)(=O)Nc2ccc(NC(=O)N[C@H](Cc3ccccc3)C(=O)OC(C)(C)C)cc2)cc1` [Compound 62, tert-butyl (2R)-3-phenyl-2-{[4-(p-tolylsulfonylamino)phenyl]carbamoylamino}propanoate], the EC50 stood at 930 nM and the “GLP-1 receptor action enhancing activity (vs BETP)” value was 27.

With `CC(C)CCCC(C)NC(=O)[C@@H](Cc1ccncc1)NC(=O)Nc1ccc(NS(=O)(=O)c2ccc(C(C)(C)C)cc2)cc1` (stereo partly shown) [Compound 106], the concentration for a half-maximal effect (EC50) turned out to be 390 nM and the “GLP-1 receptor action enhancing activity (vs BETP)” value is listed as 64. For `Cc1ccccc1S(=O)(=O)Nc1ccc(NC(=O)N[C@@H](Cc2ccccc2)C(=O)OC(C)(C)C)cc1` [Compound 78], in that order: 1700 nM and 15.

In the case of `Cc1ccc(S(=O)(=O)Nc2ccc(NC(=O)N[C@H](CC(C)C)C(=O)NCCc3cccs3)cc2)cc1` [Compound 28], the half-maximal effective concentration (EC50) is 1800 nM and the “GLP-1 receptor action enhancing activity (vs BETP)” value is recorded as 14. For `Cc1ccc(S(=O)(=O)Nc2ccc(NC(=O)N[C@H](Cc3ccccc3)c3nc(C(C)(C)C)no3)cc2)cc1` [Compound 70] the same measures were 1300 nM and 20.

`Cc1ccc(S(=O)(=O)Nc2ccc(NC(=O)N[C@H](Cc3ccccc3)C(=O)NCC#N)cc2)cc1` [Compound 7]: the EC50 is 50 nM and the “GLP-1 receptor action enhancing activity (vs BETP)” value came out at 505. For `Cc1ccc(S(=O)(=O)Nc2ccc(NC(=O)N[C@@H](Cc3c[nH]c4ccccc34)C(=O)OC(C)(C)C)cc2)cc1` [Compound 67] the same measures were 660 nM and 38.

For the molecule `CCCCC(CC)CNC(=O)[C@H](CC(C)C)NC(=O)Nc1ccc(NS(=O)(=O)c2ccc(C(C)(C)C)cc2)cc1` (stereo partly shown) [Compound 51], the EC50 is 9 nM and the “GLP-1 receptor action enhancing activity (vs BETP)” value came out at 2786. For `Cc1ccc(S(=O)(=O)Nc2ccc(NC(=O)N[C@H](CC(=O)OC(C)(C)C)Cc3ccccc3)cc2)cc1` [Compound 76], in that order: 1600 nM and 16. For `CCC(CC)CNC(=O)[C@@H](CC(C)C)NC(=O)Nc1ccc(NS(=O)(=O)c2ccc(C)cc2)cc1` [Compound 30] the same measures were 1200 nM and 21. For `CSCCCN(c1ccc(NC(=O)N[C@H](CC2CCCCC2)C(=O)NC(C)CCCC(C)C)cc1)S(=O)(=O)c1ccc(C(C)(C)C)cc1` (stereo partly drawn) [Compound 97, (2R)-2-({4-[(4-tert-butylphenyl)sulfonyl-(3-methylsulfanylpropyl)amino]phenyl}carbamoylamino)-3-cyclohexyl-N-(1,5-dimethylhexyl)propanamide] the same measures were 63 nM and 399.

Source of the values: patent US20190022039A1, “COMPOUND HAVING ENHANCING ACTIVITY FOR GLUCAGON-LIKE PEPTIDE-1 RECEPTOR ACTIONS” (AJINOMOTO CO., INC., priority 2016, published 2019).
